# Test results: US9314485B2, “Use of PI3K M-TOR and AKT inhibitors to induce FOXP3 expression and generate regulatory T cells” (Medical Research Council, priority 2006, dated 2016)
# Experiments:
# [1] = test system: naive CD62LhiCD4+CD25− LN T cells; assay: Foxp3 induction in newly activated naive CD4 T cells (intracellular staining); format: cell-based, mouse; settings: for effect on Foxp3 expression (in words): newly activated T cells deprived of TCR signals; for Foxp3 expression in control cultures, TCR signal deprived cultures subtracted: serum free AIM-V medium, without anti TGFβ and SB431542, 24-48 hours / 2 days; for percentage of cells expressing Foxp3: added 18 hours after activation with TCR signal deprivation, read within 24-48 hours
# Protocol: Mouse strains, cell sorting and culture Animal work was carried out according the Animals (Scientific Procedures) Act, UK. Lymph node (LN) cells were stained, analysed and sorted by flow cytometry as described (Cobb et al 2005 J. Exp. Med. 201: 1367-1373). Intracellular staining for Foxp3 protein was done as advised by the manufacturers (eBiosciences.com). The phosphorylation syatus of S6 ribosomal protein was determined using anti pS6 Ser235/236 (Cellsignaling cat.no. 2211, http://www.cellsignal.com) using the eBioscience Foxp3 staining kit and anti rabbit IgG-FITC or IgG-Cy5 (Jackson Immunoresearch). For induction of Foxp3 expression, sorted LN CD4+ CD25− CD62Lhi T cells were cultured at 1-3×10^6/ml with plate bound anti-TCRβ. […] After 18 hours the cells were either left in place for continued TCR stimulation or moved to uncoated wells with the indicated additives. To assess regulatory function, CD4 T cells cultured as indicated were titrated into round bottom wells containing either 1×10^5 CFSE labeled total LN cells or 5×10^4 CFSE labeled CD4^+ CD25^− T cells and 1×10^5 mitomycin-C treated (25 μg/ml, 20 min, 37° C.) T cell depleted splenocytes with the indicated concentrations of anti CD3 (2C11, Pharmingen). CD4 T cell CFSE profiles were recorded between 48 and 72 hours later.
# Mice, Cell Sorting and Culture. Animal work was carried out according to the Animals (Scientific Procedures) Act, UK. Lymph node (LN) cells or thymocytes from wild type were stained, analysed and sorted by flow cytometry as described (Thompson et al., 2007 Immunity VoI 26 pp 335-344) from wild type (C57BL/6, BALB/c or C57BL/6×129) mice or from Rag1 deficient H2^b AND TCR transgenic mice. Antigen presenting cells were derived from bone marrow in the presence of GM-CSF and incubated with antigenic peptide. Intracellular staining for Foxp3 protein was done as advised by the manufacturers (eBiosciences.com). The phosphorylation status of S6 ribosomal protein was determined using anti pS6 Ser235/236 (Cell Signaling cat.no. 2211, http://www.cellsignal.com) using the eBioscience Foxp3 staining kit and anti rabbit IgG-FITC or IgG-Cy5 (Jackson ImmunoResearch). […] After 18 hours the cells were either left in place for continued TCR stimulation or moved to uncoated wells with the indicated additives. To assess regulatory function, CD4 T cells cultured as indicated were titrated into round bottom wells containing either 1×10^5 CFSE labeled total LN cells or 5×10^4 CFSE labeled CD4^+CD25^− T cells and 1×10^5 mitomycin-C treated (25 μg/ml, 20 min, 37° C.) T cell depleted splenocytes with the indicated concentrations of anti CD3 (2C11, Pharmingen). CD4 T cell CFSE profiles were recorded between 48 and 72 hours later.
# [2] = target: PI3KC2α (Homo sapiens, UniProt O00443); settings: unit inferred; read-out: Specificity for PI3KC2α (IC50 determined in vitro); cited from earlier work
# Sequence of PI3KC2α (O00443 whole entry, species assumed): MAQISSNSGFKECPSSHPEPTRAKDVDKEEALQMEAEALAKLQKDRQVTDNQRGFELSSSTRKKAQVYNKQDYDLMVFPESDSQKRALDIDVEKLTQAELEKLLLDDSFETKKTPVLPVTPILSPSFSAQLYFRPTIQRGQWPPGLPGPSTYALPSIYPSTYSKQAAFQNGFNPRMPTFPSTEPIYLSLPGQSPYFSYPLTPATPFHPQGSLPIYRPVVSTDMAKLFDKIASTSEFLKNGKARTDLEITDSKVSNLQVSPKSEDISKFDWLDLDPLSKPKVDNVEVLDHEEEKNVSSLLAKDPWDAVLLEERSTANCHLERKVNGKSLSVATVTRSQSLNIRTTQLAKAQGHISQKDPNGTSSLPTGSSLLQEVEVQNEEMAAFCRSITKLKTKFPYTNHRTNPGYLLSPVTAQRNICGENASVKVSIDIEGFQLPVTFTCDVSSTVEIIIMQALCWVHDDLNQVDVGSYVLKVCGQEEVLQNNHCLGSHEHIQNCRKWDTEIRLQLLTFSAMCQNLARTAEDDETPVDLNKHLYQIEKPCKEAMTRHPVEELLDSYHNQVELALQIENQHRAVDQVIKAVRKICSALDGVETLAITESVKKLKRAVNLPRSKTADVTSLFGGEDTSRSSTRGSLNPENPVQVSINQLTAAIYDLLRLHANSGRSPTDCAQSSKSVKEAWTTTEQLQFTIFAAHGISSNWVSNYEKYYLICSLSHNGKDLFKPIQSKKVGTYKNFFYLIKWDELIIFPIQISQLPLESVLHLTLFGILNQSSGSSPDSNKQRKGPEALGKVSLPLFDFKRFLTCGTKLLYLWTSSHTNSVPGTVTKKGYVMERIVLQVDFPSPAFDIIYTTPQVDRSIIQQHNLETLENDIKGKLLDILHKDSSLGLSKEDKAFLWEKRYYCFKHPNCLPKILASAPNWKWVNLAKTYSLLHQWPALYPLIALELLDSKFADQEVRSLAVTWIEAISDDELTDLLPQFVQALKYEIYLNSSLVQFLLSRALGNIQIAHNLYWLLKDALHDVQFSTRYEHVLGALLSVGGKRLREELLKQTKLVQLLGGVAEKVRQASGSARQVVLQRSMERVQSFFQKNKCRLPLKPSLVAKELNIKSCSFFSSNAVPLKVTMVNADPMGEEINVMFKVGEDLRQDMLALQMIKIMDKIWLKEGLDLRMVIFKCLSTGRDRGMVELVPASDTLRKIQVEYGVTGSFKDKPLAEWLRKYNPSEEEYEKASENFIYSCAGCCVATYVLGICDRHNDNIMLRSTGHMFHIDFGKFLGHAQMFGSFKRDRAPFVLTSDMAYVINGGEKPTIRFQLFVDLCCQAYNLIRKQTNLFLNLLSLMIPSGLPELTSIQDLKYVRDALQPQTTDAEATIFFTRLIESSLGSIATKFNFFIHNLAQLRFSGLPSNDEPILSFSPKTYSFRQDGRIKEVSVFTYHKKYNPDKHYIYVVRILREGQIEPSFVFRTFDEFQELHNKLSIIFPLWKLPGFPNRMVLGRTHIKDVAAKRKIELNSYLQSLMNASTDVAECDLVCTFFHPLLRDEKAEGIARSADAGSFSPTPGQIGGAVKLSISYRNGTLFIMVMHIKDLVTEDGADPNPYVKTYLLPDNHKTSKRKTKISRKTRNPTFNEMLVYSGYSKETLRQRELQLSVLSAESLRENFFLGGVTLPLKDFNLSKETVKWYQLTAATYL
# [3] = target: PI4KIIα (Homo sapiens, UniProt Q9BTU6); settings: unit inferred; read-out: Specificity for PI4KIIα (IC50 determined in vitro); cited from earlier work
# [4] = target: PI4KIIIα (Homo sapiens, UniProt P42356); settings: unit inferred; read-out: Specificity for PI4KIIIα (IC50 determined in vitro); cited from earlier work
# [5] = target: ATR (Homo sapiens, UniProt Q13535); settings: unit inferred; read-out: Specificity for ATR (IC50 determined in vitro); cited from earlier work
# [6] = target: ATM (Homo sapiens, UniProt Q13315); settings: unit inferred; read-out: Specificity for ATM (IC50 determined in vitro); cited from earlier work
# Sequence of ATM (Q13315 whole entry, species assumed): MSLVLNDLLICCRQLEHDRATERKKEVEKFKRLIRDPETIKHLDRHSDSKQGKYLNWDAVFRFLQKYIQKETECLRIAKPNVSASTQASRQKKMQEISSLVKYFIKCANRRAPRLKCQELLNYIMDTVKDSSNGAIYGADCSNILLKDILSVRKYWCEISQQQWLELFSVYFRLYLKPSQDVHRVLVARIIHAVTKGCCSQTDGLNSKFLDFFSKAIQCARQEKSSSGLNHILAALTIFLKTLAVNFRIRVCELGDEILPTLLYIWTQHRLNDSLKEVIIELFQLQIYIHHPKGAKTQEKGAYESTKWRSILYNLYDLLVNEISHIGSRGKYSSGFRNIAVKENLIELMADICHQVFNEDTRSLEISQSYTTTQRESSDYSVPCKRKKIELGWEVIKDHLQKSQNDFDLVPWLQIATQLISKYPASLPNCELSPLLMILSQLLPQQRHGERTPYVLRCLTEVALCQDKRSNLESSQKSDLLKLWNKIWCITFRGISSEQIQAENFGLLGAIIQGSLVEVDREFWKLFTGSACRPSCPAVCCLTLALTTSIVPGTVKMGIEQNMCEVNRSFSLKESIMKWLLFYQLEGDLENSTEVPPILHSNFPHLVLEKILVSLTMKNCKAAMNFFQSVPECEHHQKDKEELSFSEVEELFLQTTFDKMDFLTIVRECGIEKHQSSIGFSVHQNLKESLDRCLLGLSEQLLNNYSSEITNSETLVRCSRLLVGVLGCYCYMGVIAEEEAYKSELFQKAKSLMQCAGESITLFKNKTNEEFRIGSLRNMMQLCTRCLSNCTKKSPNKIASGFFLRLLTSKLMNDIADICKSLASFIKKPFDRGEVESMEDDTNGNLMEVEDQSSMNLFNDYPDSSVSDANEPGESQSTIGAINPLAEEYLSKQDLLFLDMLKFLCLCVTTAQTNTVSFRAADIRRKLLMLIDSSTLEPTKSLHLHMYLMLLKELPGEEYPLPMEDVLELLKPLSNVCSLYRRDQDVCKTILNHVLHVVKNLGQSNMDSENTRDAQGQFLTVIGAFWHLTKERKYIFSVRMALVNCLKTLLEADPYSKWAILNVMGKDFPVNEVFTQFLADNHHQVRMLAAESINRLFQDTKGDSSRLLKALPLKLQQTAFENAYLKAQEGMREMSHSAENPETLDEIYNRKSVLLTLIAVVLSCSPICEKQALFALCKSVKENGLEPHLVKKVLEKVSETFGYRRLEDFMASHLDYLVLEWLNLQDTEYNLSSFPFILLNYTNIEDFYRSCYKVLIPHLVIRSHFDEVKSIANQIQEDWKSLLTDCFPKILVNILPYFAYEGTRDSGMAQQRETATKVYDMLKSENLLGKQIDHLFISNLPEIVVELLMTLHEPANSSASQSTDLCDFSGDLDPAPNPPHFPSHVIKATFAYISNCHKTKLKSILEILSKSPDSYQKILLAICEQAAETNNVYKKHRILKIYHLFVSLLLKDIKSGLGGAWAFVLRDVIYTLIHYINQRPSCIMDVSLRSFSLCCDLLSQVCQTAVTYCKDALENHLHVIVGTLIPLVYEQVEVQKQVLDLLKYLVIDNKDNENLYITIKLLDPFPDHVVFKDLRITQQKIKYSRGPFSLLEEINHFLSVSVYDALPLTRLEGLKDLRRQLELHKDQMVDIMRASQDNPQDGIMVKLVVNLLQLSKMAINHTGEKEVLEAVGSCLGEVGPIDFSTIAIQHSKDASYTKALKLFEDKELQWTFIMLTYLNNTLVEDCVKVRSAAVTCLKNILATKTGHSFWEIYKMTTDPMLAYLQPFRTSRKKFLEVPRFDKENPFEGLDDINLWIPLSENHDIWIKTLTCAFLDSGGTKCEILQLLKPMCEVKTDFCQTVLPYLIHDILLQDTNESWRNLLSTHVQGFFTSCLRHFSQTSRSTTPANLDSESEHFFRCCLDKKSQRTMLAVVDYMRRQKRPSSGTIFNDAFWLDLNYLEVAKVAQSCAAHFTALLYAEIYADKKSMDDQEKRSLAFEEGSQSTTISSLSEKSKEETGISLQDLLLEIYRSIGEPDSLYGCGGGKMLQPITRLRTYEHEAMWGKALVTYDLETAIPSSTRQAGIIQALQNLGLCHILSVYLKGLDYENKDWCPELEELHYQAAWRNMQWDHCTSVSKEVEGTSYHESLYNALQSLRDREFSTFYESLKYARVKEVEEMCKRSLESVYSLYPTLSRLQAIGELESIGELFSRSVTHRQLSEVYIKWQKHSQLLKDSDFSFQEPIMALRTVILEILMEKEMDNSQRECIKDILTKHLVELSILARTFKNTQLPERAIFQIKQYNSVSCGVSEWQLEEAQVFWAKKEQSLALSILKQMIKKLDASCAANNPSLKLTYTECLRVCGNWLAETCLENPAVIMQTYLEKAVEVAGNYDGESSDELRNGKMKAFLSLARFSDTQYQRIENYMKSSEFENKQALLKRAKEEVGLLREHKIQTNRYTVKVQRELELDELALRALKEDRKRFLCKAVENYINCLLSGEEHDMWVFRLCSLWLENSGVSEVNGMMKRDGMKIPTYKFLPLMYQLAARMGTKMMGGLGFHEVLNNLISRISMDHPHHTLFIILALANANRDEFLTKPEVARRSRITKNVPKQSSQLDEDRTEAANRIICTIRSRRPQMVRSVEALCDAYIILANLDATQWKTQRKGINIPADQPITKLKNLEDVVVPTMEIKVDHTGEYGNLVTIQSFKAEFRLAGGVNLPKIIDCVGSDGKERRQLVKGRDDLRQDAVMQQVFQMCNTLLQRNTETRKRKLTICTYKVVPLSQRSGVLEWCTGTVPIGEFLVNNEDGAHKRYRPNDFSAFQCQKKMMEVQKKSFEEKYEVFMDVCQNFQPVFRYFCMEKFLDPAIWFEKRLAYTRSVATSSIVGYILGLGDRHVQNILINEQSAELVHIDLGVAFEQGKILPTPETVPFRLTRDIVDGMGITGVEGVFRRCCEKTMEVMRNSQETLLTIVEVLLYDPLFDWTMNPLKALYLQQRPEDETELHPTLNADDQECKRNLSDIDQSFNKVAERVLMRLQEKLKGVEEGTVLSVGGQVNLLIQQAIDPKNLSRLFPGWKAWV
# [7] = test system: PI4P5KIα; settings: second PI4P5KIα line; unit inferred; read-out: Specificity for PI4P5KIα (IC50 determined in vitro); cited from earlier work
# [8] = target: PI3KC2β (Homo sapiens, UniProt O00750); settings: unit inferred; read-out: Specificity for PI3KC2β (IC50 determined in vitro); cited from earlier work
# [9] = target: PI4KIIIβ (Homo sapiens, UniProt Q9UBF8); settings: unit inferred; read-out: Specificity for PI4KIIIβ (IC50 determined in vitro); cited from earlier work
# [10] = target: DNA-PK (Homo sapiens, UniProt P78527); settings: unit inferred; read-out: Specificity for DNA-PK (IC50 determined in vitro); cited from earlier work
# [11] = target: mTORC1 (Homo sapiens, UniProt P42345); settings: unit inferred; read-out: Specificity for mTORC1 (IC50 determined in vitro); cited from earlier work
# [12] = target: PI4P5KIα (Homo sapiens, UniProt Q99755); settings: first PI4P5KIα line; unit inferred; read-out: Specificity for PI4P5KIα (IC50 determined in vitro); cited from earlier work
# [13] = target: T1, PI5P4KIIβ (Homo sapiens, UniProt P78356); settings: unit inferred; read-out: Specificity for PI5P4KIIβ (IC50 determined in vitro); cited from earlier work
# T1 sequence (P78356 1-416): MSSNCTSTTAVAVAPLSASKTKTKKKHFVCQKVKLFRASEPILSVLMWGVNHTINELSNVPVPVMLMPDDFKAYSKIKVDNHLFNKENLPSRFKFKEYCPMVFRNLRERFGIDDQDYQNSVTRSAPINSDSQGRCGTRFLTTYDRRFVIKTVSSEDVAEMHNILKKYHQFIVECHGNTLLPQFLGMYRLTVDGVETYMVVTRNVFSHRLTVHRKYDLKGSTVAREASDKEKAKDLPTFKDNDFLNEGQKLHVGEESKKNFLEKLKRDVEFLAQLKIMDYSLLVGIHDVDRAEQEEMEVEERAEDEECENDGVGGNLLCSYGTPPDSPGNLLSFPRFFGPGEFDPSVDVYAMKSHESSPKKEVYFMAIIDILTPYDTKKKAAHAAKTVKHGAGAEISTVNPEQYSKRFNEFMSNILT
# [14] = serum free AIM-V, anti TGFβ 3 μg/ml, SB431542 20 μM
smiles,measurement,setting,value
Cc1ccc([N+](=O)[O-])cc1S(=O)(=O)N(C)/N=C/c1cnc2ccc(Br)cn12 [PIK75],toxicity in the Foxp3 induction assay,[1]; over the duration of the assay,toxicity over the duration of our assay
Oc1cccc(-c2nc(N3CCOCC3)c3oc4ncccc4c3n2)c1 [PI-103],increase in Foxp3 expressing cells over and above TCR deprivation alone,[1]; IC-87114 down to 0.01 μM,> 20%
same,effect on Foxp3 expression (in words),[1],strongly induced Foxp3
same,"Foxp3 expression in control cultures, TCR signal deprived cultures subtracted",[1],35.1±3.8%
same,IC50,[2],~1 µM
same,IC50,[3],> 100 µM
same,IC50,[4],> 100 µM
same,IC50,[5],0.85 µM
same,IC50,[6],0.92 µM
same,IC50,[7],> 100 µM
CC(C)C[C@H](NC(=O)[C@H](Cc1ccccc1)C[C@@H](O)[C@H](Cc1ccccc1)NC(=O)OC(C)(C)C)C(=O)N[C@@H](Cc1ccccc1)C(N)=O [L-685458],effect on Foxp3 expression (in words),[1],None of these detectably enhanced the expression of Foxp3
O=c1[nH]c2ccccc2n1C1CCN(Cc2ccc(-c3nc4cc5nc[nH]c5cc4nc3-c3ccccc3)cc2)CC1 [Akti-1/2],effect on Foxp3 expression (in words),[1],enhanced Foxp3 expression
same,effect on Foxp3 expression (in words),[1]; listed as Akti 1/2,induces Foxp3 expression
"O=c1cc(N2CCNCC2)oc2c(-c3ccccc3)cccc12 [Ly303511, 2-piperazinyl-8-phenyl-4H-1-benzopyran-4-one]",percentage of cells expressing Foxp3,[1],6.6±3.0%
NC(=O)c1ccc(-c2nc(-c3ccc4c(c3)OCO4)c(-c3ccccn3)[nH]2)cc1 [SB431542],effect on Foxp3 induction by PI3K/mTOR inhibitors,[1]; [14],had no effect
same,reduction of Foxp3 induction by TGFβ,[1]; [14],96%
CO[C@H]1C[C@@H]2CC[C@@H](C)[C@@](O)(O2)C(=O)C(=O)N2CCCC[C@H]2C(=O)O[C@H]([C@H](C)C[C@@H]2CC[C@@H](O)[C@H](OC)C2)CC(=O)[C@H](C)/C=C(\C)[C@@H](O)[C@@H](OC)C(=O)[C@H](C)C[C@H](C)/C=C/C=C/C=C/1C [rapamycin],% Foxp3+ cells (nutrient deprivation experiment),[1]; 18 hour activated CD4 T cells,25 % Foxp3^+
same,percentage of cells expressing Foxp3,[1],26.8±14.4%
same,"Foxp3 expression in control cultures, TCR signal deprived cultures subtracted",[1],28.6±9.0%
COC[C@H]1OC(=O)c2coc3c2[C@@]1(C)C1=C(C3=O)[C@@H]2CCC(=O)[C@@]2(C)C[C@H]1OC(C)=O [Wortmannin],percentage of cells expressing Foxp3,[1],17.3±5.3%
COc1ccc2c(c1OC)N=C(NC(=O)c1cccnc1)N1CCN=C21 [PIK90],effect on Foxp3 expression at 0.1 μM,[1]; 0.1 μM,strongly induced Foxp3
same,"Foxp3 expression in control cultures, TCR signal deprived cultures subtracted",[1],36.0±12.9%
same,IC50,[2],0.047 µM
same,IC50,[8],0.064 µM
same,IC50,[3],> 100 µM
same,IC50,[4],0.83 µM
same,IC50,[9],3.1 µM
same,IC50,[5],15 µM
same,IC50,[6],0.61 µM
same,IC50,[10],0.013 µM
same,IC50,[11],1.05 µM
same,IC50,[12],> 100 µM
same,IC50,[7],> 100 µM
same,IC50,[13],> 100 µM
O=C1NC(=O)/C(=C\c2ccc3nccnc3c2)S1 [SA-605240],effect on Foxp3 expression (in words),[1]; listed as AS-605240,affected Foxp3 only at concentrations far in excess of its IC50 for p110γ
